The nature of the data set: Pharmacokinetics of Compound 3 after repeated (5 days) subcutaneous dosing. Format: in vivo. How it is done:
The volume of each dose delivered (mL/kg) was based on each individual animal's body weight. • This was a multiple dose terminal study dosed once per day over 5 days. Rats were taken down following their 5th and final dose. • Doses were administered in accordance with test facility standard operating procedures.
• Terminal blood samples were collected via cardiac puncture following inhalation anesthesia in accordance with test facility standard operating procedures. • Blood samples were collected into tubes with appropriate anticoagulant. Tubes were stored on wet ice until processed to plasma by centrifugation (3500 rpm at 5° C. for 10 minutes) within 20 minutes of collection. Sample aliquots of 100 μL were transferred into individual uniquely labeled matrix tubes and stored at nominal −80° C. until transferred to analytical chemistry for analysis. • Immediately following each terminal blood collection for all groups, animals were sacrificed and perfused with cold PBS. The following tissues were collected: heart and brain, in accordance with Table 4. • Plasma and tissue samples were processed for analysis by LC/MS/MS to determine the amounts/concentrations reported in the Figures.

As to `CC1=C(C)C(=O)C(CC[C@@](C)(O)COCCC[Si](C)(C)C)=C(C)C1=O` [Compound 3], the “uptake to plasma and clearance rate, mouse versus rat” value (20 mg/kg SC mouse vs 10 mg/kg SC rat (60 mg/m^2), 30 minutes to 24 hours, FIG. 17) was “roughly equivalent”. Also, the tolerability result (rat, 10 mg/kg SC, 5 daily doses) was “well tolerated”.

The record behind these values is patent publication US20250144049A1, “METHODS, COMPOSITIONS, AND USES RELATED TO THE TREATMENT AND PREVENTION OF LEIGH SYNDROME” (Stealth BioTherapeutics Inc., priority 2023, published 2025).
